Measurements published in patent US20050227220A1, “Compositions and Methods for Evaluating and Designing Nuclear Receptor Ligands that Modulate Co-Regulator Affinity” (priority 2002, published 2005).
“Also recorded” adds a separate entry of the source.

How the values were obtained:
[1] = target: T1, PPARα LBD (Homo sapiens, UniProt Q07869); assay: FRET assay: ligand effect on CBP fragment / NCoR ID-C binding to PPAR LBD; type: biochemical
T1 construct: made in house; host or cells: bacterial BL21-DE3, vector pRSETA
T1 sequence (Q07869 192-468): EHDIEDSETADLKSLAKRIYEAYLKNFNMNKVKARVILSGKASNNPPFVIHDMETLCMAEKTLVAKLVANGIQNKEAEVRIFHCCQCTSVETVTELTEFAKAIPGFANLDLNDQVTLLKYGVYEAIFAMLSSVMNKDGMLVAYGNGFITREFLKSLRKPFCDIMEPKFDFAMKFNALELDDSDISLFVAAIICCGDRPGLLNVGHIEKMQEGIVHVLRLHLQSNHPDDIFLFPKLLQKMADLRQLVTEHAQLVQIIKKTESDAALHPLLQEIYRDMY
From the text: (§1) The experimentally determined α value is the ratio of cofactor affinities in the presence and absence of a saturating concentration of ligand. This analysis permits a direct comparison of the effects of compounds, independent of cofactor concentration and differences in coregulator affinity for the individual receptors. […] 98(9): p.
(§2) The effects of the coregulator environment on the apparent affinities and selectivities of various ligands were than examined. Experimentally determined pKs and the α values derived from the FRET assay were used to calculate the apparent affinity of the ligand for the receptor/cofactor complex (i.e. K/α).
(§3) FIG. 5 illustrates the effect of ligands on coactivator and corepressor binding to PPAR subtypes determined by FRET.

[2] = target: T2, PPARγ LBD (Homo sapiens, UniProt P37231); assay: as above; type: biochemical; details: 10 nM PPAR LBD
T2 construct: made in house; host or cells: bacterial BL21-DE3, vector pRSETA
From the text: as §1, §2, §3

[3] = target: T3, PPARδ LBD (Homo sapiens, UniProt Q03181); assay: as above; type: biochemical
T3 construct: made in house; host or cells: bacterial BL21-DE3, vector pRSETA
T3 sequence (Q03181 139-441): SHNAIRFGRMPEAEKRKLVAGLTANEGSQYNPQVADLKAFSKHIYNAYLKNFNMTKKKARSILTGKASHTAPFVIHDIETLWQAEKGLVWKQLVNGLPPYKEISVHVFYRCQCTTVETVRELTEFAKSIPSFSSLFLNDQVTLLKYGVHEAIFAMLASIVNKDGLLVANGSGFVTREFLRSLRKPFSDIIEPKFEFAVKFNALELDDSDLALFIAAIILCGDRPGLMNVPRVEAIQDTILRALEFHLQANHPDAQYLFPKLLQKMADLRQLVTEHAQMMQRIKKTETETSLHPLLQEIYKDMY
From the text: as §1, §2, §3

[4] = target: T4, full length human PPARα (Homo sapiens, UniProt Q07869); assay: Mammalian two-hybrid assay (CV-1 cells); type: cell-based; details: VP16-PPARα, GAL4-NCoR (2239-2300), result in words
T4 construct: expressed in transfected cells; host or cells: CV-1 cells, vector pVP16 (Clonetech)
T4 sequence (Q07869 1-468): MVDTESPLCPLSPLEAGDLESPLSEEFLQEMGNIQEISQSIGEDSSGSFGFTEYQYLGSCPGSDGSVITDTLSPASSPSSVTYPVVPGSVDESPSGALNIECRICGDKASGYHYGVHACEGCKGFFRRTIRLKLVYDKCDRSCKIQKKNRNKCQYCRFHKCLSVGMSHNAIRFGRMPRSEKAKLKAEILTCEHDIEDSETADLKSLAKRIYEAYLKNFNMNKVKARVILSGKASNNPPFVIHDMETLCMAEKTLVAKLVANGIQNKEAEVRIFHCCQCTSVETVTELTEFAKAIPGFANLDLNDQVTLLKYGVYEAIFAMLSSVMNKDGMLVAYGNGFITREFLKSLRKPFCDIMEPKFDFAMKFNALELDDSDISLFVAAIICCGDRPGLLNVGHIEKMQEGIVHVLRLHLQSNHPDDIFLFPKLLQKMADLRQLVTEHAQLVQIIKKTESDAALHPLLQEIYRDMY
From the text: (§4) Mammalian two-hybrid assays were used to examine the ability of the tyrosine-based class of PPAR ligands to promote association or dissociation of the co-activator CBP and the corepressor NCoR in the context of a cellular environment. The assays for the three PPAR subtypes used full length human PPARα, PPARγ2 or PPARδ fused to the activation domain of VP16 and previously identified interaction domains of CBP and NCoR fused to the DNA binding domain of GAL4.
(§5) Expression plasmids for the VP16-human PPAR constructs were prepared by inserting amplified cDNAs encoding full length PPARα, PPARγ2 and PPARδ fused to amino acids 410-490 of the VP16 viral activation domain, into the expression vector pVP16 (Clonetech). […] The reporter plasmid was (UAS)5-tk-SPAP, and the internal control plasmid for all transfections was β-galactosidase expression vector (pCH110, Amersham).
(§6) CV-1 cells were maintained in culture in DME high glucose medium supplemented with 10% FBS and 2 mM glutamine in a humidified incubator (5% CO2 in air) at 37° C. Cells were harvested 72 hours prior to experimental use and placed in phenol red free D-MEM/F-12 medium with 15 mM HEPES supplemented with 10% charcoal/dextran-treated FBS (HyClone, Logan, Utah). The cells were harvested and seeded at 2.0×10^4 cell per well in a 96-well plate the day prior to transfection. Cells were transfected for 16 hr using Lipofectamine (Life Technologies, Inc., Rockville, Md.) essentially according to the manufacturer's instructions. The total amount of DNA transfected into each well was 80 ng. Transfection mixtures contained 8 ng VP16-PPAR plasmid, 8 ng SPAP reporter, 25 ng of pCH110(β-galactosidase) control plasmid, 35 ng of pBluescript II KS+ (Clonetech) and 4 ng of either coactivator or corepressor plasmid. Transfection quantities for full length PPAR and cofactor plasmids were optimized to generate a signal that was half of the maximal activation. These conditions would allow for dissociation or association to be experimentally determined for each ligand evaluated. Stock solutions of drugs were prepated in DMSO and dilutions were made in phenol red-free D-MEM/F-12 with 15 mM HEPES supplemented with 10% charcoal stripped, delipidated, heat inactivated (62° C. for 35 min) bovine calf serum (Sigma, St. Louis, Mo.) such that the final concentration of DMSO was 0.1%. Transfection mixtures were aspirated and 100 μl, of medium containing drug was added to each well.

[5] = target: T5, full length human PPARδ (Homo sapiens, UniProt Q03181); assay: Mammalian two-hybrid assay (CV-1 cells); type: cell-based; details: VP16-PPARδ, GAL4-NCoR (2239-2300), result in words
T5 construct: expressed in transfected cells; host or cells: CV-1 cells, vector pVP16 (Clonetech)
From the text: as §4, §5, §6

[6] = target: T6, PPARδ LBD / RXRα LBD (Homo sapiens, UniProt Q03181); assay: FRET assay: ligand effect on RXRα LBD binding to PPAR LBD; details: 10 nM PPAR LBD, 4 concentrations of RXR
T6 sequence (Q03181 139-441): T3 sequence (Q03181 139-441)
T6 sequence (P19793 225-462 partner limits assumed): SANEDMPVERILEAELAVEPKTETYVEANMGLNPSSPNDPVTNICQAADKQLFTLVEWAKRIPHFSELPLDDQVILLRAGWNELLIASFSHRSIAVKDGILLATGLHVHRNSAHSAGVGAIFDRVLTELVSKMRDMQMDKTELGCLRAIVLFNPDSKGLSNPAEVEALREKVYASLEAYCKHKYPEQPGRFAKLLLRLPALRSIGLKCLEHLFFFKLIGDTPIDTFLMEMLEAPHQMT

[7] = target: PPARα ligand binding domain (Homo sapiens, UniProt Q07869); assay: Surface plasmon resonance: effect of compounds on co-repressor peptide binding to PPAR LBD; details: SPR equilibrium response, immobilized biotinylated peptides
Method: (§7) A surface plasmon resonance assay was used to further characterize the effects of PPAR ligands binding of peptides derived from the co-repressors NCOR and SMRT to the PPAR subtypes. Each peptide was biotinylated and immobilized on separate flow cells of a BlAcore sensor chip. Using a BIAcore instrument, fixed concentrations of each PPAR subtype ligand binding domain were incubated with varied concentrations of test compounds and injected over the peptide-derivatized sensor chip to determine the equilibrium binding response of the receptors for the immobilized peptides.
(§8) The binding of co-activator and co-repressor peptides with PPAR ligand binding domains and the effects of compounds on these interactions were determined by surface plasmon resonance using the Biacore 3000. Approximately 300 resonance units (RU) of biotinylated peptides were immobilized to individual flow cells of a streptavidin chip. All experiments were conducted at 25° C. at a flow rate of 10 μl/minute with a buffer containing 10 mM HEPES, pH 7.4, containing 0.15 M NaCl, 3 mM EDTA and 0.005% polysorbate-20. […] Binding was determined by measuring the equilibrium binding response 10 seconds before the end of the association phase minus the response from a flow cell with no immobilized peptide.
(§9) Each point is the average of three injections.

[8] = target: PPARγ ligand binding domain (Homo sapiens, UniProt P37231); assay: as above; details: SPR equilibrium response, immobilized biotinylated peptides
Method: as §7, §8, §9

[9] = α = ratio of cofactor affinities in presence and absence of saturating ligand

T2 sequence (P37231 234-505): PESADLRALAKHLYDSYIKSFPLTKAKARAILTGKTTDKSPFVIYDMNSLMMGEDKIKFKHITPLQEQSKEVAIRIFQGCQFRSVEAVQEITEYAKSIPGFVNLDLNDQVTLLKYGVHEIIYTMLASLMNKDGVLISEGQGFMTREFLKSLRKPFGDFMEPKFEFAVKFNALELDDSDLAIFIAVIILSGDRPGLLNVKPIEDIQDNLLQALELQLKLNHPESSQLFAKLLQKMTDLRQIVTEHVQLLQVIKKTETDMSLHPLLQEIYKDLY
T5 sequence (Q03181 whole entry, the tested form may be a part): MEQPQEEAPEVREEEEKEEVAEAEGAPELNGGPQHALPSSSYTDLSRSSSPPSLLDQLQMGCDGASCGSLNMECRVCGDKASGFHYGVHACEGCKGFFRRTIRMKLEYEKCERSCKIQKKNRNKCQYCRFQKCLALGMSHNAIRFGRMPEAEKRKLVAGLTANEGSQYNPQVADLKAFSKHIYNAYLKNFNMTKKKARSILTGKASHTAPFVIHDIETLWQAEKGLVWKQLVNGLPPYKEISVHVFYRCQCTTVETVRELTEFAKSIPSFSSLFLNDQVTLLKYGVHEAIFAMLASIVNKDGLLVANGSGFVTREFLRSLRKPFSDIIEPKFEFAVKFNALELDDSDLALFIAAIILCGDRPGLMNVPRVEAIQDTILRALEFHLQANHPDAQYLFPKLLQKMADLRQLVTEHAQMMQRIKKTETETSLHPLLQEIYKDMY
Chain of PPARγ ligand binding domain (P37231 234-505): as the sequence (P37231 234-505) above

## COC(=O)c1ccccc1N[C@@H](Cc1ccc(OCCc2nc(-c3ccccc3)oc2C)cc1)C(=O)O [GW7845]
[1]; 10 nM PPAR LBD, CBP (57-454)
  effect on apparent affinity of PPARα for the co-activator fragment from CBP: increased the apparent affinity
[1]; 10 nM PPAR LBD, NCoR ID-C
  effect on affinity of PPARα for the co-repressor peptide: enhanced the binding; also recorded: slightly increase the affinity
[1]; [9]
  alpha value for the association of PPARα and NCoR: 0.16
[2]; CBP (57-454)
  effect on apparent affinity of PPARγ for the co-activator fragment from CBP: increased the apparent affinity
[2]; NCoR ID-C
  effect on affinity of PPARγ for the co-repressor peptide: decrease the affinity
[3]; 10 nM PPAR LBD, CBP (57-454)
  effect on apparent affinity of PPARδ for the co-activator fragment from CBP: increased the apparent affinity
[3]; [9]
  log α (NCoR association with PPARδ): 0.14
[4]
  effect on PPARα interaction with NCoR: neither GW1929 nor GW7845 were able to promote association with NCoR
[5]
  effect on PPARδ interaction with NCoR: no significant association
[6]
  promotion of association of PPARδ with RXR: most effective
[7]
  effect on binding of PPARα LBD to the NCOR and SMRT co-repressor peptides: increase the binding
[8]
  effect on binding of PPARγ LBD to the NCOR- and SMRT-derived co-repressor peptides: decreased the binding
